Source: patent US11369688B2, “Hybrid telodendrimers” (THE REGENTS OF THE UNIVERSITY OF CALIFORNIA, priority 2016, dated 2022)

Experiment: Visual observation of drug-loaded crosslinked PEG5K-(Ahx-(NAc-Cys))4/CA4 nanocarriers
Type: physicochemical
Details: 1 mg drug/10 mg PEG5K-(Ahx-(NAc-Cys))4/CA4, crosslinked; effective concentration 2 mg drug/20 mg polymer per ml PBS

Row | Observation | Compound
1 | Clear solution | COc1cccc2c1C(=O)c1c(O)c3c(c(O)c1C2=O)C[C@@](O)(C(=O)CO)C[C@@H]3O[C@H]1C[C@H](N)[C@H](O)[C@H](C)O1 [Doxorubicin]
2 | Clear solution | CO[C@H]1C(=O)[C@]2(C)[C@@H](OC)C[C@H]3OC[C@@]3(OC(C)=O)[C@H]2[C@H](OC(=O)c2ccccc2)[C@]2(O)C[C@H](OC(=O)[C@H](O)[C@@H](NC(=O)OC(C)(C)C)c3ccccc3)C(C)=C1C2(C)C [Cabazitaxel, cabazitaxel]
3 | Clear solution | CC(=O)O[C@@]12CO[C@@H]1C[C@H](O)[C@@]1(C)C(=O)[C@H](O)C3=C(C)[C@@H](OC(=O)[C@H](O)[C@@H](NC(=O)OC(C)(C)C)c4ccccc4)C[C@@](O)([C@@H](OC(=O)c4ccccc4)[C@H]21)C3(C)C [Docetaxel, docetaxel]
4 | Clear | CC[C@]1(O)C[C@@H]2CN(CCc3c([nH]c4ccccc34)[C@@](C(=O)OC)(c3cc4c(cc3OC)N(C)[C@H]3[C@@](O)(C(=O)OC)[C@H](OC(C)=O)[C@]5(CC)C=CCN6CC[C@]43[C@@H]65)C2)C1 [Vinblastine]
5 | Huge precipitate | CCc1c2c(nc3ccc(O)cc13)-c1cc3c(c(=O)n1C2)COC(=O)[C@]3(O)CC [SN-38]
